Data: ChEMBL document CHEMBL1201862, “PubChem BioAssay data set” (2004)
Calls of active or inactive are those of the source.

Tests used:
[1] = Counterscreen for inhibitors of Trypanosoma brucei methionyl tRNA synthetase (MetRS): Luminescence-based cell-based high throughput dose response assay to identify compounds that are cytotoxic to Jurkat human T lymphocyte cells.; format: functional
[2] = nonselective StAR promoter luciferase inhibitors – cell-based, luminescence, luciferase reporter, counter-screen for LRH-1 inverse agonist project, dose response (AID 651969); format: functional
[3] = molecular target: Nuclear receptor subfamily 5 group A member 2 (Homo sapiens, UniProt O00482); format: functional, cell-based;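 further: HEK293T cells transfected with LRH-1 and a StAR promoter luciferase reporter; potency for inhibitors that lower LRH-1 driven reporter light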
Steroidogenic factor 1 = Steroidogenic factor 1 (Homo sapiens, UniProt Q13285); test: Counterscreen for inverse agonists of the liver receptor homolog-1 (LRH-1; NR5A2): Luminescence-based cell-based high throughput dose response assay to identify inverse agonists of the Steroidogenic Factor 1 Nuclear Receptor (SF1; NR5A1).; format: functional
[4] = molecular target: T1, Methionyl-tRNA synthetase, putative (Trypanosoma brucei brucei, UniProt Q38C91); format: functional, Trypanosoma brucei brucei strain 927/4 GUTat10.1
T1 sequence (Q38C91 whole entry): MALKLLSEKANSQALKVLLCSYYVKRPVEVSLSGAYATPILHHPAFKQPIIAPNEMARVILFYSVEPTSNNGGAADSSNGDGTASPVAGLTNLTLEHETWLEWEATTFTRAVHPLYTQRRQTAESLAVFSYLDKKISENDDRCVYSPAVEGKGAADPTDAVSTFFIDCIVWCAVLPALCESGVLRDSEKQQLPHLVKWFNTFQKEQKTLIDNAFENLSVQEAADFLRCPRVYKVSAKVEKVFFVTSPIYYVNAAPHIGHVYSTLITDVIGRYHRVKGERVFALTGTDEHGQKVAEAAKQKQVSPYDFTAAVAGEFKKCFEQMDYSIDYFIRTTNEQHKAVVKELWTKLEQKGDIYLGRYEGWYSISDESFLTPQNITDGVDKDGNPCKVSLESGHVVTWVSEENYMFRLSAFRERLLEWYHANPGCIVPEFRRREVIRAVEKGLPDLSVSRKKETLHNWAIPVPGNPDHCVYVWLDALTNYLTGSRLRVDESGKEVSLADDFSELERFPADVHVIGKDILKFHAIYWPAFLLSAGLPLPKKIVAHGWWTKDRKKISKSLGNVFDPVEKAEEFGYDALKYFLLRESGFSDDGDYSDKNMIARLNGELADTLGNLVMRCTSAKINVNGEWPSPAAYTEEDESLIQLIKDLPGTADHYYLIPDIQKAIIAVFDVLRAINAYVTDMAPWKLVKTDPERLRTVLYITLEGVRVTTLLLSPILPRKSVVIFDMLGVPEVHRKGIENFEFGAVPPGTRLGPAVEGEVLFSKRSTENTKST

[5] = molecular target: T1, Methionyl-tRNA synthetase, putative; format: functional, Trypanosoma brucei brucei strain 927/4 GUTat10.1; remark: listed apart in the source
[6] = molecular target: T2, Sentrin-specific protease 6 (Homo sapiens, UniProt Q9GZR1); format: functional;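 further: Luminescence-based dose-response confirmatory assay of SENP6 inhibition, following up an ultra-high-throughput screen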
T2 sequence (Q9GZR1 whole entry): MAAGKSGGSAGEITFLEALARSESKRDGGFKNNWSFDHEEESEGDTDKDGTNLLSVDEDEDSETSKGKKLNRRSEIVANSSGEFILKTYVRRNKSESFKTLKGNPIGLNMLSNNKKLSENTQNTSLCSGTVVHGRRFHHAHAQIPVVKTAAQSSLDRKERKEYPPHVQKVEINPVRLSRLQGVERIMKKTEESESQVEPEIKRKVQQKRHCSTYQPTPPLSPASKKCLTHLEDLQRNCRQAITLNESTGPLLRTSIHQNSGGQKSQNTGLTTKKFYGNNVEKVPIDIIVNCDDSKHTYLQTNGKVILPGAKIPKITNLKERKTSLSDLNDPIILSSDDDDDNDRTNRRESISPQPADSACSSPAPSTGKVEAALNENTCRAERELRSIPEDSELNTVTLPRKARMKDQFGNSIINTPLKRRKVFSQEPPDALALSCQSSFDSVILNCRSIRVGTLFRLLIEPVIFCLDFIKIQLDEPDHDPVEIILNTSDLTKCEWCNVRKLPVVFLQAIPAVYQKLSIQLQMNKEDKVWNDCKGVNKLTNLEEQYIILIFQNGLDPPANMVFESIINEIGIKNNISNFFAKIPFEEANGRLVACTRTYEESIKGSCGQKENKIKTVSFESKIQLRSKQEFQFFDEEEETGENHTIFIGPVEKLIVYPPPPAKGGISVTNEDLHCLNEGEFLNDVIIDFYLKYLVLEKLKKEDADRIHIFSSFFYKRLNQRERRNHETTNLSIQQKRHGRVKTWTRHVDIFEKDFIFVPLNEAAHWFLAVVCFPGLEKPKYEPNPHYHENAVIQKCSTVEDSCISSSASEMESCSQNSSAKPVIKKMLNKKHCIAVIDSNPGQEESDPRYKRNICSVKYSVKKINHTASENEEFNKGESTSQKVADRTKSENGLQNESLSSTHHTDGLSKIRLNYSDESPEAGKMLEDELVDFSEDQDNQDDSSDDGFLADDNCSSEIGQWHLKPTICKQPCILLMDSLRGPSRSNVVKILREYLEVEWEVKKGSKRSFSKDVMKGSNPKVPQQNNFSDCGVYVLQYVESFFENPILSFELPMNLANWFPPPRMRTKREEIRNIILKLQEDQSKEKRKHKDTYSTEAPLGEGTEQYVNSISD

[7] = molecular target: T3, Sentrin-specific protease 7 (Homo sapiens, UniProt Q9BQF6); format: functional;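 further: Luminescence-based dose-response confirmation of ultra-high-throughput screening hits, measuring inhibition of SENP7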
T3 sequence (Q9BQF6 whole entry): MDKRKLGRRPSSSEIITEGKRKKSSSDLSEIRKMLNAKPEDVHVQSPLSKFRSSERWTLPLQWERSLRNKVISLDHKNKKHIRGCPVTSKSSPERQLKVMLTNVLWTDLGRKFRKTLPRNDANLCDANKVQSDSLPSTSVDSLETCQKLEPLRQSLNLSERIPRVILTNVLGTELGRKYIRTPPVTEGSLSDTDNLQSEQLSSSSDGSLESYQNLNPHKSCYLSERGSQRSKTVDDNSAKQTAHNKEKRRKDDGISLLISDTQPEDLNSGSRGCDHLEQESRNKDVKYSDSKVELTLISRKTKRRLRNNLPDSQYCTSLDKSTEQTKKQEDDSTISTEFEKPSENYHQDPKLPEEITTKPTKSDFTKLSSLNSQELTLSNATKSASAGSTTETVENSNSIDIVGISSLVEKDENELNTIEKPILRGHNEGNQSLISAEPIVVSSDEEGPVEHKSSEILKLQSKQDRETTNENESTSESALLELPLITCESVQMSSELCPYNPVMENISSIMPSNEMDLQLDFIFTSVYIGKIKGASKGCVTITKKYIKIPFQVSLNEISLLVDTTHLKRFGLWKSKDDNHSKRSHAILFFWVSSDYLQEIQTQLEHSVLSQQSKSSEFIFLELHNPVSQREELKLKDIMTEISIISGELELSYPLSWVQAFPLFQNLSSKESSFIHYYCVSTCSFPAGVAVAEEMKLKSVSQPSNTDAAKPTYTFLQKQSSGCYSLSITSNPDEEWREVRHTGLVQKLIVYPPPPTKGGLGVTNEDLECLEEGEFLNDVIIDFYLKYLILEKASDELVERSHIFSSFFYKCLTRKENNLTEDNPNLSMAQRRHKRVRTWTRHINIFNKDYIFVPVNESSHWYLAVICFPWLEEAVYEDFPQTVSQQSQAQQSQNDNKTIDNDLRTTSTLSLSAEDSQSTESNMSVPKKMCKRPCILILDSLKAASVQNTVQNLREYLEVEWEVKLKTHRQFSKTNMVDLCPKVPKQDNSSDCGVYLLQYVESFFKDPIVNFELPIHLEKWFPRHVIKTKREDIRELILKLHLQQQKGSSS

Caspase-6 = molecular target: T4, Caspase-6 (Homo sapiens, UniProt P55212); test: inhibition of CASP6 peptide cleavage – biochemical, VEID-R110 fluorescence, cherry-pick, dose response (AID 720632)
T4 sequence (P55212 whole entry): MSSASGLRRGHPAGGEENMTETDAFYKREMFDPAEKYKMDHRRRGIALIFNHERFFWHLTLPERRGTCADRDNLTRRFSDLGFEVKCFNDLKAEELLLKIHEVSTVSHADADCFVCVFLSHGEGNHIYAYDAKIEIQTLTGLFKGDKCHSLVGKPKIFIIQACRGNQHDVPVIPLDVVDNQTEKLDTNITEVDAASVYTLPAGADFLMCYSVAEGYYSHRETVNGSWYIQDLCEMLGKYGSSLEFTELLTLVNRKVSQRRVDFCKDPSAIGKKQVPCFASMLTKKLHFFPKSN

Caspase-3 = molecular target: T5, Caspase-3 (Homo sapiens, UniProt P42574); format: functional;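 further: Dose-response selectivity test against caspase-3 for candidate inhibitors of sentrin-specific proteases (SENPs)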
T5 sequence (P42574 whole entry): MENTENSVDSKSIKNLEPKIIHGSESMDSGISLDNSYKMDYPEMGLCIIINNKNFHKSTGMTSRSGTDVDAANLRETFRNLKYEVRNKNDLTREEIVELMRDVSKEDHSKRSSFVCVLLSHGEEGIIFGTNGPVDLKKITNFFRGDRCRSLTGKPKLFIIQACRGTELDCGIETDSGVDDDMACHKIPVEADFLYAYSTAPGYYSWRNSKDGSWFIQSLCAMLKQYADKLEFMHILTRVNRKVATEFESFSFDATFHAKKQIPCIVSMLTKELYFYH

[8] = molecular target: T6, Tyrosyl-DNA phosphodiesterase 2 (Homo sapiens, UniProt O95551); test: potency against TDP2 phosphodiesterase activity – biochemical, epi absorbance, IC50, dose response (AID 743297)
T6 sequence (O95551 whole entry): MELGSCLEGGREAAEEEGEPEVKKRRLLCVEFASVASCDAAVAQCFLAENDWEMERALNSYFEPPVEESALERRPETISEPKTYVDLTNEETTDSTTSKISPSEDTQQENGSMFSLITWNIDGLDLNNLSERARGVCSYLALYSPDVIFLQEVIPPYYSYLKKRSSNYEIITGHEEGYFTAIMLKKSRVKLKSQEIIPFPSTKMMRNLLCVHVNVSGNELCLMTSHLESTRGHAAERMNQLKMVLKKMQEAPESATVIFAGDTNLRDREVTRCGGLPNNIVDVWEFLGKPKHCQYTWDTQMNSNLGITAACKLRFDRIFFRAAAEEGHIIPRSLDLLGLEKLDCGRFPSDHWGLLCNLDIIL

[9] = molecular target: T7, Mitochondrial peptide methionine sulfoxide reductase (Bos taurus, UniProt P54149); test: Absorbance-based biochemical high throughput dose response assay for activators of Methionine sulfoxide reductase A (MsrA).; format: functional
T7 sequence (P54149 whole entry): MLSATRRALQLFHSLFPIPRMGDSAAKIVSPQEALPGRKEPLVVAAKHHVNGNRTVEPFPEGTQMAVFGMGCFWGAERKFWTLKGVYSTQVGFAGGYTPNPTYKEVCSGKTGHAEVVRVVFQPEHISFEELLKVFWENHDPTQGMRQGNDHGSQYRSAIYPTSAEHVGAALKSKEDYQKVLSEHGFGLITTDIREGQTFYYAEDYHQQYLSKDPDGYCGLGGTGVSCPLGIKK

[10] = molecular target: T8, Sentrin-specific protease 8 (Homo sapiens, UniProt Q96LD8); format: functional;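 further: luminescence read-out of SENP8 inhibition, dose-response confirmation following an ultra-high-throughput screen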
T8 sequence (Q96LD8 whole entry): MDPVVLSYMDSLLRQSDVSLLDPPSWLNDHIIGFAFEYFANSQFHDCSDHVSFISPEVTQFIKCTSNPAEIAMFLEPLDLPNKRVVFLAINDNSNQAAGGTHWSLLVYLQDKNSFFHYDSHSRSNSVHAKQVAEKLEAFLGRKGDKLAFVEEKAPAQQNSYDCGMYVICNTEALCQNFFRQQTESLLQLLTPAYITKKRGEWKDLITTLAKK

Vero = test: viability loss in Vero cells – cell-based, plate reader, cherry-pick samples, cytotoxicity control, dose response (AID 687020); format: functional; settings: Chlorocebus sabaeus
[11] = molecular target: T9, Small ubiquitin-related modifier 1 (Homo sapiens, UniProt P63165); test: SUMO1 protein-protein binding blockers, potency – biochemical, FRET, dose response (AID 624383); format: functional; settings: read-out: IC50_Mean
[12] = molecular target: T10, Carboxy-terminal domain RNA polymerase II polypeptide A small phosphatase 1 (Homo sapiens, UniProt Q9GZU7); test: CTDSP1 inhibitors, concentration-response, biochemical, absorbance readout, ultra-high-throughput screen actives (AID 540297); format: functional
T10 sequence (Q9GZU7 whole entry): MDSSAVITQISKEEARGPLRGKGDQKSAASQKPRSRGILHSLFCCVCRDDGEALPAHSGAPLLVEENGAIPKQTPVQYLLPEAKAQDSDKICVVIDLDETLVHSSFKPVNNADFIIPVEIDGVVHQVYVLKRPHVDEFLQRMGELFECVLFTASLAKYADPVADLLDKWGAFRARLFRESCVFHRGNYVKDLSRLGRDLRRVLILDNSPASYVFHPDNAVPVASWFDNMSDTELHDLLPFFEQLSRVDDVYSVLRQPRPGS

[13] = molecular target: T9, Small ubiquitin-related modifier 1; test: SUMO1 protein interaction blockers, potency – biochemical, fluorescence polarization, uHTS hits, dose response (AID 624382); format: functional; settings: read-out: IC50_Mean

Chain of Nuclear receptor subfamily 5 group A member 2 (O00482 whole entry): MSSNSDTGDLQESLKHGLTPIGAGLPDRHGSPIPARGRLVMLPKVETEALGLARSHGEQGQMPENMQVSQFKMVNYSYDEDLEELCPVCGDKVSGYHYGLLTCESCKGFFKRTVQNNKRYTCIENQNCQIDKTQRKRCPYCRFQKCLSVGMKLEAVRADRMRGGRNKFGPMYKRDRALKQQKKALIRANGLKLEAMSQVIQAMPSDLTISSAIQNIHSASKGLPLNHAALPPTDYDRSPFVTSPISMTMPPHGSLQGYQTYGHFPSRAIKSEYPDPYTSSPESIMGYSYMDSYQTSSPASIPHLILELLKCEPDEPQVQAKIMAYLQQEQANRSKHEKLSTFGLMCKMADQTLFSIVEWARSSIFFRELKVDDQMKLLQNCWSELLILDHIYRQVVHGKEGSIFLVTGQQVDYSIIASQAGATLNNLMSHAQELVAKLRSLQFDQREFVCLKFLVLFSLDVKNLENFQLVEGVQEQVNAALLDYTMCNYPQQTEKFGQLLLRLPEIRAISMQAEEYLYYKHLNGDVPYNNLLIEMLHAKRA
T9 sequence (P63165 whole entry, the tested form may be a part): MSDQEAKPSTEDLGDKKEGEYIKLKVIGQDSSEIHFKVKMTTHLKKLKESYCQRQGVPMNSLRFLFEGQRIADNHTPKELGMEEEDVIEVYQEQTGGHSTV
Chain of Steroidogenic factor 1 (Q13285 whole entry): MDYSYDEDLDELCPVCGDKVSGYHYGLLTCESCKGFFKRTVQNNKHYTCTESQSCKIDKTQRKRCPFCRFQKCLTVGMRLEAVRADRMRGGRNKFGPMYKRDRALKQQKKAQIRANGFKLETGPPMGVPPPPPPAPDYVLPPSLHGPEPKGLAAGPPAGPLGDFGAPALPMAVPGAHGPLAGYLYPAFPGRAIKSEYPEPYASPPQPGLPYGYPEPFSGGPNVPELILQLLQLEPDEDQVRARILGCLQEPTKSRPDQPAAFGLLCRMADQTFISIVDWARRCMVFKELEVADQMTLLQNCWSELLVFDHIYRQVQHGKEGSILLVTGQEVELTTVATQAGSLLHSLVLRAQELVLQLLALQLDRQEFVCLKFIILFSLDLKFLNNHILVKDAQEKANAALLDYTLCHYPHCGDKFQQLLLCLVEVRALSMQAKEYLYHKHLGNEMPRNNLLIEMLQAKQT

In the case of O=C(CSc1nc2ccc[nH]c-2n1)Nc1ccc2c(c1)OCO2, the IC50 [1] is reported as 83.3 µM (inactive).

In the case of COCC(=O)NC1CCN(CC(=O)Nc2ccc(OC)cc2[N+](=O)[O-])CC1, the IC50 [2] is reported as 35.9 µM (inactive), the IC50 [3] is reported as 3.9 µM (active) and the IC50 (Steroidogenic factor 1) is reported as 1.37 µM (active).

With COc1ccc(S(=O)(=O)Nc2ccc3c(c2)n(C)c(=O)n3C)cc1F the IC50 [2] was 34.5 µM (inactive), the IC50 [3] was 8.04 µM (active) and the IC50 (Steroidogenic factor 1) was 9.64 µM (active).

For O=C(CSc1nc2ncccc2[nH]1)Nc1ccc2c(c1)OCO2, the IC50 [4] was 81.6 µM (inactive) and the IC50 [5] was 30.3 µM (inactive).

With CC1CCCC(NC(=O)COC(=O)c2ccc([N+](=O)[O-])s2)C1C (centres undefined) the IC50 [6] was 6.5 µM (active), the IC50 [7] was 8.12 µM (active) and the AC50 (Caspase-6) was 8.44 µM (active). The IC50 (Caspase-3) was 13.7 µM (active), the IC50 [8] was 85.5 µM (inactive) and the EC50 [9] was 22.9 µM (inactive). The IC50 [10] was 5.63 µM (active).

With CCN1CCN(S(=O)(=O)c2ccc(Cl)c(C(=O)N(C)CCOc3ccc(Cl)cc3)c2)CC1 the AC50 (Vero) was 21.1 µM (active).

In the case of COc1ccc(Nc2nnc(-c3ccncc3)s2)cc1Cl, the IC50 [11] is reported as 6.3 µM (active), the IC50 [12] is reported as 4.85 µM (active) and the IC50 [13] is reported as > 66.6 µM (inactive).

With COc1ccc(N2CCN(c3cc(C(=O)NC4CCCCC4)ncn3)CC2)cc1OC the AC50 (Vero) was 29.7 µM (active).

In the case of O=C(NCc1nc2ccccc2[nH]1)C1=C[C@H](C2CCCCC2)C[C@H](OCCCCO)O1, the IC50 [4] is reported as 5.64 µM (active), the IC50 [5] is reported as 3.14 µM (active) and the IC50 [1] is reported as 28.8 µM (inactive).
